≈ marks a conversion by molar mass, not a printed value. Read-outs that look alike come from different tables or passages of the source.
Tests used:
Escherichia coli MG1655 = assay: Antibiotic MIC determination (serial twofold dilutions, OD600 during 17 hours at 37° C.); format: cell-based; details: 37° C.; for MIC: Escherichia coli
Description: The Minimal Inhibitory Concentration (MIC) of the antibiotics was determined under the same culture conditions as the tests using the ATP assay kit. […] An exponentially growing culture (OD600=0.3) was added to each well (60 μl/well) of a sterile microtiter plate containing the test concentration of antibiotic (40 μl/well). The volume was completed to 120 μl with medium and OD600 nm measurements were performed using a microtiter plate reader (Infinite 200 PRO, TECAN) during 17 hours at 37° C.
In all the following experiments, the MIC values were measured for each antibiotic with parameters such as temperature, OD600 and equipment identical to those used for the bioluminescence assay.

[1] = test system: E. coli MG1655 reporter cells; format: cell-based, Escherichia coli; details: for Lag before ATP release (shortest, incompressible value): highest concentrations tested; for Amplitude of ATP release: bacteriostatic antibiotics
Description: The classical luciferase was from Molecular Probes (ATP Determination Kit (A22066)). The thermostable luciferase was from “CheckLite AT100” (kikkoman). The Luciferin-luciferase reagents were prepared following manufacturer instructions. Bacteria from exponentially growing cultures (OD600=0.3) were added to each well (60 μl/well) of a black 96-microtiter plate (Greiner Bio-one, 655076) and 20 μl of the luciferin-luciferase reagent solution was added. The microtiter plate was incubated 5 min at 37° C. for reaction with the luciferase to eliminate traces of extracellular ATP. Then 40 μl of antibiotic solution (3 times concentrated) prepared in the culture medium were added. Bioluminescence of each well was monitored for 4 hours under shaking (218 rpm) and at 28 or 37° C., depending on the experiments (see legends of Figures). The reagent stability in presence or absence of antibiotics was checked in control experiments without bacteria but with 4 pmoles of ATP. Tests were also performed in 384-microtiter plates (Greiner Bio-one, 784076).
Aminoglycosides are bactericidal antibiotics causing translational miscoding with lethal consequences for the cell. Leakage of small molecules following an aminoglycoside shock was previously identified by different methods including radiolabelling. Therefore, the inventors investigated the response of live cells to aminoglycoside stress.

[2] = MG1655, read-out: MIC in MOPS glucose 0.4%, MOPS minimal medium glucose 0.4%
[3] = MG1655, LB medium, OD600 0.15 final, read-out: MIC in LB
[4] = antibiotic at 3.125 μg/mL, LB, 37° C.
[5] = antibiotic at 6.25 μg/mL, LB, 37° C.
[6] = antibiotic at 12.5 μg/mL, LB, 37° C.
[7] = antibiotic at 25 μg/mL, LB, 37° C.
[8] = antibiotic at 50 μg/mL, LB, 37° C.
[9] = antibiotic at 100 μg/mL, LB, 37° C.
[10] = antibiotic at 200 μg/mL, LB, 37° C.
[11] = MOPS minimal medium glucose 0.4%
[12] = antibiotic at 400 μg/mL, LB, 37° C.
[13] = MOPS minimal medium (glucose 0.4%), FIG. 11

Compound	MIC (Escherichia coli MG1655; [2]) [µg/mL]	MIC (Escherichia coli MG1655; [3]) [µg/mL]	Lag time before ATP [1, 6] [min]	Lag time before ATP [1, 7] [min]	Lag time before ATP [1, 8] [min]	Lag time before ATP [1, 9] [min]	further results
CO/N=C(\C(=O)N[C@@H]1C(=O)N2C(C(=O)O)=C(CSc3nc(=O)c(=O)[nH]n3C)CS[C@H]12)c1csc(N)n1 [Ceftriaxone]	6.25 (≈ 11.3 µM)	12.5 (≈ 22.5 µM)	19.2	16.5	13.9		Lag time before ATP [1, 4]: 29.7 min; Lag time before ATP [1, 5]: 21.2 min
CC1COc2c(N3CCN(C)CC3)c(F)cc3c(=O)c(C(=O)O)cn1c23 (stereo not drawn) [Ofloxacin]	4 (≈ 11.1 µM)	4 (≈ 11.1 µM)					Lag time of ATP release in minimal medium compared to rich medium (factor of decrease) ([1]; MOPS minimal medium vs LB): 2; Lag time before ATP ([1]; antibiotic at 1 μg/mL, LB, 37° C.): 105 min; Lag time before ATP ([1]; antibiotic at 2 μg/mL, LB, 37° C.): 95 min; Lag time before ATP ([1]; antibiotic at 4 μg/mL, LB, 37° C.): 84 min; Lag time before ATP ([1]; antibiotic at 8 μg/mL, LB, 37° C.): 77 min; Lag before ATP release (shortest, incompressible value) ([1]; LB, 37° C.): 77 min
CN(C)[C@@H]1C(O)=C(C(N)=O)C(=O)[C@@]2(O)C(O)=C3C(=O)c4c(O)cccc4[C@@](C)(O)[C@H]3C[C@@H]12 [Tetracycline]	12.5 (≈ 28.1 µM)	12.5 (≈ 28.1 µM)					High dose at which ATP release was observed ([1]; LB, FIG. 9): 4 times the MIC
C[C@@H]1O[C@@H]1P(=O)(O)O [Fosfomycin]	100 (≈ 724 µM)	50 (≈ 362 µM)	28.6	26.2	21.8	20.2	Lag time before ATP [1, 10]: 18.6 min
Cc1cc(NS(=O)(=O)c2ccc(N)cc2)no1 [Sulfamethoxazole]	1600 (≈ 6320 µM)						
CN[C@@H]1[C@H](O)[C@H](NC)[C@H]2O[C@@]3(O)C(=O)C[C@@H](C)O[C@H]3O[C@@H]2[C@H]1O [Spectinomycin]	100 (≈ 301 µM)	50 (≈ 150 µM)					Amplitude of ATP release ([1]; LB, FIG. 9): very weak amplitude
Bleomycin				164.0	142.0	98.0	MIC in LB (Escherichia coli MG1655; LB medium, OD600 0.15 final): 100 µg/mL; MIC in MOPS glucose 0.4% (Escherichia coli MG1655; [11]): 200 µg/mL; Lag time before ATP [1, 10]: 78.0 min; Lag time before ATP [1, 12]: 71.5 min
O=C(O)c1cn(C2CC2)c2cc(N3CCNCC3)c(F)cc2c1=O [Ciprofloxacin]	6.25 (≈ 18.9 µM)	25 (≈ 75.4 µM)					
CC1=C(C(=O)O)N2C(=O)[C@@H](NC(=O)[C@H](N)c3ccccc3)[C@H]2SC1 [Cephalexin]	17.4 (≈ 50.1 µM)	34.7 (≈ 99.9 µM)					Shape of ATP release trace ([1]; LB medium, 37° C., FIG. 8): multiphasic; Shape of ATP release trace [1, 13]: monophasic; Lag time before ATP ([1]; antibiotic at 8.8 μg/mL, LB, 37° C.): 34.3 min; Lag time before ATP ([1]; antibiotic at 17.5 μg/mL, LB, 37° C.): 9.45 min; Lag time before ATP ([1]; antibiotic at 35 μg/mL, LB, 37° C.): 5 min; Lag time before ATP ([1]; antibiotic at 70 μg/mL, LB, 37° C.): 3.6 min; Lag time before ATP ([1]; antibiotic at 140 μg/mL, LB, 37° C.): 3.6 min; Lag before ATP release (shortest, incompressible value) ([1]; LB, 37° C.): 3.6 min
CO[C@@H]1[C@@H](OC(N)=O)[C@@H](O)[C@H](Oc2ccc3c(O)c(NC(=O)c4ccc(O)c(CC=C(C)C)c4)c(=O)oc3c2C)OC1(C)C [Novobiocin]		200 (≈ 326 µM)					
CC(C)(O/N=C(\C(=O)N[C@@H]1C(=O)N2C(C(=O)[O-])=C(C[n+]3ccccc3)CS[C@H]12)c1csc(N)n1)C(=O)O [Ceftazidime]	100 (≈ 183 µM)	100 (≈ 183 µM)		40.3	8.6	8.3	Lag time before ATP [1, 10]: 8.0 min; Lag time before ATP [1, 12]: 7.8 min
CO[C@H]1/C=C/O[C@@]2(C)Oc3c(C)c(O)c4c(O)c(c(/C=N/N5CCN(C)CC5)c(O)c4c3C2=O)NC(=O)/C(C)=C\C=C\[C@H](C)[C@H](O)[C@@H](C)[C@@H](O)[C@@H](C)[C@H](OC(C)=O)[C@@H]1C [Rifampicin]	25 (≈ 30.4 µM)	50 (≈ 60.8 µM)	57.1	38	34.8	34.6	Lag of ATP leakage ([1]; LB, FIG. 9): about 30 minutes; Lag time before ATP [1, 4]: 67 min; Lag time before ATP [1, 5]: 63.8 min
CC[C@H]1OC(=O)[C@H](C)[C@@H](O[C@H]2C[C@@](C)(OC)[C@@H](O)[C@H](C)O2)[C@H](C)[C@@H](O[C@@H]2O[C@H](C)C[C@H](N(C)C)[C@H]2O)[C@](C)(O)C[C@@H](C)C(=O)[C@H](C)[C@@H](O)[C@]1(C)O [Erythromycin]	1600 (≈ 2180 µM)	400 (≈ 545 µM)					Amplitude of ATP release ([1]; LB, FIG. 9): very weak amplitude
Cc1c(N)nc([C@H](CC(N)=O)NC[C@H](N)C(N)=O)nc1C(=O)N[C@H](C(=O)N[C@H](C)[C@@H](O)[C@H](C)C(=O)N[C@H](C(=O)NCCC1=N[C@@H](c2nc(C(=O)NCCCCN=C(N)N)cs2)CS1)[C@@H](C)O)[C@@H](O[C@@H]1O[C@@H](CO)[C@@H](O)[C@H](O)[C@@H]1O[C@H]1O[C@H](CO)[C@@H](O)[C@H](OC(N)=O)[C@@H]1O)c1cnc[nH]1 [Zeocin]			112.2	113.1	97.5	85.7	MIC in LB (Escherichia coli MG1655; LB medium, OD600 0.15 final): 200 µg/mL (≈ 140 µM); MIC in MOPS glucose 0.4% (Escherichia coli MG1655; [11]): 200 µg/mL (≈ 140 µM); Lag time before ATP [1, 10]: 68.6 min; Lag time before ATP [1, 12]: 57.8 min; Lag time before ATP ([1]; antibiotic at 800 μg/mL, LB, 37° C.): 51.9 min
NC[C@H]1O[C@H](O[C@H]2[C@H](O)[C@@H](O[C@H]3O[C@H](CO)[C@@H](O)[C@H](N)[C@H]3O)[C@H](N)C[C@@H]2N)[C@H](O)[C@@H](O)[C@@H]1O [Kanamycin]	3 (≈ 6.19 µM)	25 (≈ 51.6 µM)	25	16	11	8	Lag time before ATP [1, 5]: 50 min; Lag before ATP release (shortest, incompressible value) ([1]; LB, 37° C.): ~4.7 min
CC1(C)S[C@@H]2[C@H](NC(=O)[C@H](N)c3ccccc3)C(=O)N2[C@H]1C(=O)O [Ampicillin]	25 (≈ 71.5 µM)	25 (≈ 71.5 µM)	43	23	13	9	Shape of ATP release trace ([1]; LB medium, 37° C., FIG. 8): multiphasic; Intensity of ATP release signal in minimal medium compared to rich medium (factor of decrease) ([1]; MOPS minimal medium vs LB): 10; Lag time before ATP [1, 5]: 108 min; Lag before ATP release (shortest, incompressible value) ([1]; LB, 37° C.): 9 min
CC1(C)S[C@@H]2[C@H](NC(=O)[C@H](N)c3ccc(O)cc3)C(=O)N2[C@H]1C(=O)O [Amoxicillin]	12.5 (≈ 34.2 µM)	12.5 (≈ 34.2 µM)	11.4	8	6.9		Lag time before ATP [1, 4]: 39.3 min; Lag time before ATP [1, 5]: 31.4 min
O=C(N[C@H](CO)[C@H](O)c1ccc([N+](=O)[O-])cc1)C(Cl)Cl [Chloramphenicol]	25 (≈ 77.4 µM)	25 (≈ 77.4 µM)					ATP leakage ([1]; high concentrations, twice or four times the MIC, LB, FIG. 9): important leakage
CN[C@@H]1[C@@H](O[C@H]2O[C@H](CO)[C@@H](N)[C@H](O)[C@H]2O)OC2C[C@@H](N)[C@@H](O[C@H]3[C@H](O)[C@@H](O)[C@H](N)C[C@@H]3N)OC2[C@@H]1O (stereo partly drawn) [Apramycin]	2.5 (≈ 4.63 µM)	20.2 (≈ 37.4 µM)					Shape of ATP release trace ([1]; LB medium, 37° C., FIG. 8): bi-phasic; Shape of ATP release trace [1, 13]: monophasic; Lag time before ATP ([1]; antibiotic at 6.75 μg/mL, LB, 37° C.): 60.9 min; Lag time before ATP ([1]; antibiotic at 13.5 μg/mL, LB, 37° C.): 30.0 min; Lag time before ATP ([1]; antibiotic at 27 μg/mL, LB, 37° C.): 13.3 min; Lag time before ATP ([1]; antibiotic at 54 μg/mL, LB, 37° C.): 10.9 min; Lag before ATP release (shortest, incompressible value) ([1]; LB, 37° C.): ~10.9 min
O=C1CN(/N=C/c2ccc([N+](=O)[O-])o2)C(=O)N1 [Nitrofurantoin]	50 (≈ 210 µM)	50 (≈ 210 µM)					
CCN1CCN(C(=O)N[C@@H](C(=O)N[C@@H]2C(=O)N3[C@@H]2SC(C)(C)[C@@H]3C(=O)O)c2ccccc2)C(=O)C1=O [Piperacillin]		200 (≈ 386 µM)					
